Data on 22 compounds can be found in ChEMBL document CHEMBL3351381, “Synthesis, structure-activity relationship studies, and antibacterial evaluation of 4-chromanones and chalcones, as well as olympicin A and derivatives” (J Med Chem, 2014).

≈ marks a conversion by molar mass, not a printed value. Some results are limits rather than exact numbers.

Holding throughout (format): functional
For test [1], the system named is Klebsiella pneumoniae. Put plainly: Antimicrobial activity against Klebsiella pneumoniae ATCC 33495 at >200 ug/ml by microbroth dilution method. A general note: In broth dilution the organism is exposed to a series of concentrations in liquid medium.
Test [2] has as its system Pseudomonas aeruginosa. Put plainly: Antimicrobial activity against Pseudomonas aeruginosa PAO1 at >200 ug/ml by microbroth dilution method.
The test system of test [3] is Enterococcus faecalis. Briefly: Antimicrobial activity against Enterococcus faecalis ATCC 33186 by microbroth dilution method.
The test system of test [4] is Escherichia coli. Briefly: Antimicrobial activity against tolC-deficient Escherichia coli by microbroth dilution method.
Test [5] deals with Staphylococcus aureus. Put plainly: Antimicrobial activity against methicillin-resistant Staphylococcus aureus NRS 70 by microbroth dilution method.
Test [6] has as its system Mycobacterium tuberculosis. Briefly: Antimicrobial activity against Mycobacterium tuberculosis H37Rv by microbroth dilution method.
The test system of test [7] is Escherichia coli. Put plainly: Antimicrobial activity against Escherichia coli K-12 by microbroth dilution method.
Test [8] deals with Staphylococcus aureus. Put plainly: Antimicrobial activity against methicillin-sensitive Staphylococcus aureus ATCC 29213 by microbroth dilution method.

In the case of `CCCCCCCCCC1CC(=O)c2c(OCOC)cc(OCOC)cc2O1` (stereo not drawn), the MIC in test [1] was greater than 200 µg/mL; in test [2] it was greater than 200 µg/mL; in test [3], greater than 200 µg/mL; in test [4] it was greater than 200 µg/mL; in test [5], greater than 200 µg/mL; in test [6] it was 100 µg/mL (≈ 253 µM). Further, the MIC in test [7] and in test [8] was greater than 200 µg/mL throughout.
Consider `C=CCOc1ccccc1/C=C/C(=O)c1c(O)cc(O)cc1O`, for which the MIC is greater than 200 µg/mL in test [1]; greater than 200 µg/mL in test [2]; 50 µg/mL (≈ 160 µM) in test [3]; 12.5 µg/mL (≈ 40 µM) in test [4]; 25 µg/mL (≈ 80 µM) in test [5]; greater than 200 µg/mL in test [6]. The MIC in test [7] and in test [8] was greater than 200 µg/mL in each case.
In the case of `CCCCCCCC1CC(=O)c2ccc(O)cc2O1` (stereo not drawn), the minimum inhibitory concentration (MIC) is greater than 200 µg/mL in test [1]; greater than 200 µg/mL in test [2]; greater than 200 µg/mL in test [3]; 1.56 µg/mL (≈ 5.95 µM) in test [4]; greater than 200 µg/mL in test [5]; 50 µg/mL (≈ 191 µM) in test [6]. Further, the minimal inhibitory concentration (MIC) in test [7] and in test [8] was greater than 200 µg/mL in each case.
Regarding `O=C(N[C@H](CO)[C@H](O)c1ccc([N+](=O)[O-])cc1)C(Cl)Cl` [CHLORAMPHENICOL], the MIC was greater than 200 µg/mL in test [1]; greater than 200 µg/mL in test [2]; 0.78 µg/mL (≈ 2.41 µM) in test [3]; 0.39 µg/mL (≈ 1.21 µM) in test [4]; 1.56 µg/mL (≈ 4.83 µM) in test [5]; 3.13 µg/mL (≈ 9.69 µM) in test [7]. Also, the MIC in test [8] stood at 3.13 µg/mL (≈ 9.69 µM).
In the case of `CCCC1CC(O)c2ccc(O)cc2O1` (stereo not drawn), the minimum inhibitory concentration (MIC) in test [1] is greater than 200 µg/mL; in test [2] it was greater than 200 µg/mL; in test [3] it was 100 µg/mL (≈ 480 µM); in test [4], 50 µg/mL (≈ 240 µM); in test [5], 50 µg/mL (≈ 240 µM); in test [6], 12.5 µg/mL (≈ 60 µM). The MIC is greater than 200 µg/mL in test [7] and 50 µg/mL (≈ 240 µM) in test [8].
In the case of `CCCC1CC(=O)c2c(OCOC)cc(OCOC)cc2O1` (stereo not drawn), the MIC in test [1] was greater than 200 µg/mL; in test [2], greater than 200 µg/mL; in test [3] it was greater than 200 µg/mL; in test [4] it was 100 µg/mL (≈ 322 µM); in test [5], greater than 200 µg/mL; in test [6], 100 µg/mL (≈ 322 µM). The MIC in test [7] and in test [8] was greater than 200 µg/mL in each case.
Consider `O=C1CC(C2CCCCC2)Oc2cc(O)cc(O)c21` (stereo not drawn), for which the minimum inhibitory concentration (MIC) is greater than 200 µg/mL in test [1]; greater than 200 µg/mL in test [2]; 25 µg/mL (≈ 95.3 µM) in test [3]; 6.25 µg/mL (≈ 23.8 µM) in test [4]; 25 µg/mL (≈ 95.3 µM) in test [5]; 100 µg/mL (≈ 381 µM) in test [6]. The results for the minimum inhibitory concentration (MIC) in test [7] and in test [8] were greater than 200 µg/mL and 25 µg/mL (≈ 95.3 µM), respectively.
Turning to `C=CCOc1cccc(/C=C/C(=O)c2ccc(O)cc2O)c1`, the minimum inhibitory concentration (MIC) was greater than 200 µg/mL in test [1]; greater than 200 µg/mL in test [2]; greater than 200 µg/mL in test [3]; 3.13 µg/mL (≈ 10.6 µM) in test [4]; 12.5 µg/mL (≈ 42.2 µM) in test [5]; 50 µg/mL (≈ 169 µM) in test [6]. The minimal inhibitory concentration (MIC) is greater than 200 µg/mL in test [7] and 6.25 µg/mL (≈ 21.1 µM) in test [8].
For `O=C1CC(c2ccc(N3CCCCC3)cc2)Oc2cc(O)ccc21` (stereo not drawn), the minimum inhibitory concentration (MIC) in test [1] was greater than 200 µg/mL; in test [2] it was greater than 200 µg/mL; in test [3] it was 200 µg/mL (≈ 618 µM); in test [4], 12.5 µg/mL (≈ 38.7 µM); in test [5], greater than 200 µg/mL; in test [6], greater than 200 µg/mL. For the same compound, the MIC in test [7] and in test [8] was greater than 200 µg/mL each time.
For `C=CCOc1ccccc1C1CC(=O)c2c(O)cc(O)cc2O1` (stereo not drawn), the MIC is greater than 200 µg/mL in test [1]; greater than 200 µg/mL in test [2]; 50 µg/mL (≈ 160 µM) in test [3]; 6.25 µg/mL (≈ 20 µM) in test [4]; 12.5 µg/mL (≈ 40 µM) in test [5]; greater than 200 µg/mL in test [6]. The values for the minimal inhibitory concentration (MIC) in test [7] and in test [8] were greater than 200 µg/mL and 25 µg/mL (≈ 80 µM), respectively.
`CC1(C)C2CC=C(C3CC(=O)c4ccc(O)cc4O3)C1C2` (stereo not drawn): the MIC is greater than 200 µg/mL in test [1]; greater than 200 µg/mL in test [2]; greater than 200 µg/mL in test [3]; 6.25 µg/mL (≈ 22 µM) in test [4]; 200 µg/mL (≈ 703 µM) in test [5]; greater than 200 µg/mL in test [6]. The figures for the MIC in test [7] and in test [8] were greater than 200 µg/mL and 200 µg/mL (≈ 703 µM), respectively.
With `CCCC1C/C(=N\O)c2c(O)cc(O)cc2O1` (stereo not drawn), the minimum inhibitory concentration (MIC) in test [1] is greater than 200 µg/mL; in test [2], greater than 200 µg/mL; in test [3], 100 µg/mL (≈ 421 µM); in test [4], 25 µg/mL (≈ 105 µM); in test [5], 50 µg/mL (≈ 211 µM); in test [6], 100 µg/mL (≈ 421 µM). Moreover, the values for the minimal inhibitory concentration (MIC) in test [7] and in test [8] were greater than 200 µg/mL and 100 µg/mL (≈ 421 µM), respectively.
For `CC(C)=CCCC(C)CC1CC(=O)c2cc(O)ccc2O1` (stereo not drawn), the MIC in test [1] is greater than 200 µg/mL; in test [2] it was greater than 200 µg/mL; in test [3], 6.25 µg/mL (≈ 21.7 µM); in test [4] it was 3.13 µg/mL (≈ 10.9 µM); in test [5], 12.5 µg/mL (≈ 43.3 µM); in test [6], 200 µg/mL (≈ 694 µM). Also, the MIC was greater than 200 µg/mL in test [7] and 6.25 µg/mL (≈ 21.7 µM) in test [8].
As to `O=C1CC2(CCCCC2)Oc2cc(O)ccc21`, the MIC was greater than 200 µg/mL in test [1]; greater than 200 µg/mL in test [2]; greater than 200 µg/mL in test [3]; 50 µg/mL (≈ 215 µM) in test [4]; 200 µg/mL (≈ 861 µM) in test [5]; 100 µg/mL (≈ 431 µM) in test [6]. The minimum inhibitory concentration (MIC) is greater than 200 µg/mL in test [7] and 200 µg/mL (≈ 861 µM) in test [8].
With `CCCCCCC1CC(O)c2ccc(O)cc2O1` (stereo not drawn), the MIC in test [1] was greater than 200 µg/mL; in test [2], greater than 200 µg/mL; in test [3], 50 µg/mL (≈ 200 µM); in test [4] it was 3.13 µg/mL (≈ 12.5 µM); in test [5], 200 µg/mL (≈ 799 µM); in test [6], 50 µg/mL (≈ 200 µM). For the same compound, the minimal inhibitory concentration (MIC) in test [7] and in test [8] was greater than 200 µg/mL throughout.
Consider `CCCCCCC1CC(=O)c2c(O)cc(O)cc2O1` (stereo not drawn), for which the minimum inhibitory concentration (MIC) in test [1] was greater than 200 µg/mL; in test [2], greater than 200 µg/mL; in test [3], 100 µg/mL (≈ 378 µM); in test [4], 3.13 µg/mL (≈ 11.8 µM); in test [5] it was 6.25 µg/mL (≈ 23.6 µM); in test [6], 50 µg/mL (≈ 189 µM). Moreover, in test [7], the MIC was greater than 200 µg/mL.
Take `NC[C@H]1O[C@H](O[C@H]2[C@H](O)[C@@H](O[C@H]3O[C@H](CO)[C@@H](O)[C@H](N)[C@H]3O)[C@H](N)C[C@@H]2N)[C@H](O)[C@@H](O)[C@@H]1O` [KANAMYCIN]: the MIC in test [1] is greater than 200 µg/mL; in test [2] it was greater than 200 µg/mL; in test [3], 25 µg/mL (≈ 51.6 µM); in test [4], less than 0.2 µg/mL; in test [5] it was 50 µg/mL (≈ 103 µM); in test [7], 3.13 µg/mL (≈ 6.46 µM). The same compound came in with an MIC in test [8] of 1.56 µg/mL (≈ 3.22 µM).
For the compound `CCC(C)C(=O)c1c(O)cc(O)cc1OC/C=C(\C)CCC=C(C)C` (racemic), the MIC in test [1] is greater than 200 µg/mL; in test [2] it was greater than 200 µg/mL; in test [4], greater than 200 µg/mL; in test [5] it was 3.13 µg/mL (≈ 9.03 µM); in test [6] it was 200 µg/mL (≈ 577 µM).
As for `C=CCOc1cc(O)cc(O)c1C(=O)C(C)CC` (racemic), the minimal inhibitory concentration (MIC) is greater than 200 µg/mL in test [1]; greater than 200 µg/mL in test [2]; 3.13 µg/mL (≈ 12.5 µM) in test [4]; 6.25 µg/mL (≈ 25 µM) in test [5]; 100 µg/mL (≈ 400 µM) in test [6]; greater than 200 µg/mL in test [7].
As to `C=CCOc1cc(O)cc(O)c1C(=O)[C@@H](C)CC`, the minimum inhibitory concentration (MIC) in test [1] was greater than 200 µg/mL; in test [2], greater than 200 µg/mL; in test [3] it was 12.5 µg/mL (≈ 49.9 µM); in test [4] it was 3.13 µg/mL (≈ 12.5 µM); in test [5], 12.5 µg/mL (≈ 49.9 µM); in test [8], 12.5 µg/mL (≈ 49.9 µM).
Regarding `CC1(C)S[C@@H]2[C@H](NC(=O)[C@H](N)c3ccccc3)C(=O)N2[C@H]1C(=O)O` [AMPICILLIN], the minimal inhibitory concentration (MIC) is greater than 200 µg/mL in test [1]; greater than 200 µg/mL in test [2]; 0.78 µg/mL (≈ 2.23 µM) in test [3]; 1.56 µg/mL (≈ 4.46 µM) in test [4]; 12.5 µg/mL (≈ 35.8 µM) in test [5]; 3.13 µg/mL (≈ 8.96 µM) in test [7]. The MIC in test [8] came out at 1.56 µg/mL (≈ 4.46 µM).
As to `NNC(=O)c1ccncc1` [ISONIAZID], the minimum inhibitory concentration (MIC) in test [6] is 0.03 µg/mL (≈ 0.219 µM).

Broadly, the MIC is the smallest concentration in the dilution series that meets the test's criterion for growth inhibition. A high value points to a need for much substance.
